Reference: patent US8906897B2, “Antimicrobial agents based on hemin derivatives” (Obschestvo S Ogranichennoi Otvetstvennostiyu …, priority 2009, dated 2014)
Non-standard residues stand in square brackets, D forms with d. Residues, ends and D or L forms follow the SMILES beside them. Orn = NCCC[C@H](N)C(=O)O

Legend:
Candida albicans No. 927 = test: Antifungal activity, culture growth with pH indicator; type: cell-based; set-up: key to Test culture growth at various dilutions of the agent: (−) No growth; the indicator is blue; (±) Weak growth; the indicator is yellow, but the precipitate of grown cells looks as a diffuse spot; (+) Strong growth; the indicator is yellow, and the cell precipitate looks as a compact spot
Experimental: (§1) The subjects of action were Cryptococcus neoformans No. 3465 museum strain cells and Candida albicans No. 927 museum strain cells grown for one day on a glucose-peptone-yeast medium at 32° C. The reference compounds were the following antimycotics: pimafucin, amphotericin, and fluconazole.
(§2) Experiments were carried out on round-bottomed 96-well plates (Lenmedpolimer) in two replicas. To the first column (0), added was 10 μL of the stock solution of a water-soluble agent with concentrations of 10^−2 to 10^−3 mol/L; to the second column, added was also the same 10 μL plus 10 μL of the solvent corresponding to the given compound, suspended, 10 μL was transferred to the next well, and so on to the 8th well of the row. Stock solutions of water-insoluble compounds of general formula (I) (compounds V, VIII, XII, XIII, XIV, and hemin) were prepared in DMSO and were diluted with DMSO and the medium. DMSO concentrations in the reaction mixture in a well were ≦5%.
(§3) Then, to every well added was 190 μL of a Cr. neoformans cell culture suspension in a synthetic nutritional medium (so that the final cell concentration was approximately 10^3 CFU/mL), this medium containing Bromocresol Blue as a pH-indicator (pH: 5.5; indicator color: blue). As pH reduced to 4.5, the indicator in the culture changed its color to yellow, thereby indicating fungal cell growth. The synthetic medium comprised the following components: salts, amino acids, microelements, vitamins, an antibiotic, and glucose (30 components altogether) [Yarrow, D., “Methods for the Isolation, Maintenance and Identification of Yeasts,” in: The Yeasts. A Taxonomic Study, Ed. by Kurtsman, C. P, and Fell, M., Elsevier, 1998, pp. 77-100]. After being inoculated with a Cr. neoformans cell suspension, the plate was incubated at 32° C. for 1 h with stirring, then transferred to a stationary thermostat and incubated for two and five days at 27° C. After being inoculated with a C. albicans cell suspension, the plates were incubated for 1 h at 32° C. with stirring, then transferred to a stationary thermostat and incubated for one and four days at 27° C.

[1] = tested on: Cryptococcus neoformans No. 3465; test: as above; type: cell-based; set-up: key: (−) No growth; the indicator is blue; (±) Weak growth; the indicator is yellow, but the precipitate of grown cells looks as a diffuse spot; (+) Strong growth; the indicator is yellow, and the cell precipitate looks as a compact spot
Experimental: as §1, §2, §3

human leukocytes = test: Cytotoxic activity against human leukocytes; conditions: for toxic effect on human blood leukocytes (in words): concentrations of up to 1 mM, 3 h
Experimental: Total leukocytes were isolated from human blood by unforced sedimentation using freshly collected venous blood from a healthy donor.
Blood (10 mL) added with 10 units/mL heparin was exposed for 2.5 h in the dark at a temperature of 15 to 18° C. A light-colored liquid supernatant (4 mL) was collected over the layer of sedimenting erythrocytes, washed three times with balanced Hanks's salt solution, and resuspended in the RPMI-1640 medium (added with 8% fetal bovine serum, 2 mM L-glutamine, and 10 mM HEPES; hereinafter, the complete medium).
The concentrations of leukocytes and erythrocytes in the suspension were determined by counts in Goryachev's chamber, after which the suspension was adjusted to a leukocyte concentration of (1.0±0.1)×10^6 cells/mL with the complete medium.
To determine the cytotoxicity of the tested compounds for human leukocytes, the cell suspension was transferred to wells of sterile 96-well plates, tested compounds were added with serial twofold dilutions (the range of tested concentrations was from 3.2 to 100 μM for GrD and gramicidin S; from 8 to 500 μM for compound XIII; and from 8 to 1000 μM for compounds V, VI, VII, VIII, IX, X, XI, XIV, XV, XIX, and Hem), and the mixture was carefully stirred. The experiment was performed in two replicas.
As controls served cells added with an equivalent amount of the solvent in which tested compounds were prepared, namely: water for compounds VII and X; an aqueous solution of DMSO for compounds V, VI, VIII, and IX; and DMSO for GrD, gramicidin S, Hem, XI, XIII, XIV, XV, and XIX. An additional control was an additive-free leukocyte suspension.
Cells were incubated with tested compounds for 3 h (37° C., 5% CO2, 100% humidity). Leukocyte death values were quantified using fluorescence microscopy. Staining with propidium iodide (it permeates only into dead cells nuclei) and Hoechst 33342 (it stains all nuclei) was used to recognize dead and living cells. Cells were incubated for 15 min in plates with propidium iodide and Hoechst 33342 (37° C., 5% CO2), and then the plates were placed under a microscope for analysis.
The dead cell fraction was derived from the fluorescence images of cells obtained in the blue (Hoechst 33342) and red (propidium iodide) spectral ranges using an Axio Observer (Zeiss, Germany) fluorescence microscope equipped with a 10× objective lens (Plan-Neofluar 10×/0.3). The following sets of fluorescence filters were used. For propidium iodide: a 530/585-nm bandpass excitation filter, a 600-nm cut-off dichroic minor, and a 615-nm longpass barrier filter for analysis. For Hoechst 33342: a 359/372-nm bandpass excitation filter, a 395-nm cut-off dichroic mirror, and a 397-nm longpass barrier filter for analysis.
A digital camera recorded three types of cell images: (a) an image in the transmitted white light; (b) a blue fluorescence image obtained with UV excitation, and (c) a red fluorescence image obtained with green light excitation. At least four fields of view were photographed per well in various regions of a well.

[2] = dilution : 16 of 5.00 × 10^−4 M
[3] = dilution : 32 of 5.00 × 10^−4 M
[4] = dilution : 64 of 5.00 × 10^−4 M
[5] = dilution : 128 of 5.00 × 10^−4 M

Compound	Test culture growth at various dilutions of the agent (Candida albicans No. 927; dilution 0: 1 × 10^−4 M)	Test culture growth at various dilutions of the agent (Candida albicans No. 927; dilution : 2 of 1 × 10^−4 M)	Test culture growth at various dilutions of the agent (Candida albicans No. 927; dilution : 4 of 1 × 10^−4 M)	Test culture growth at various dilutions of the agent (Candida albicans No. 927; dilution : 8 of 1 × 10^−4 M)	Test culture growth at various dilutions of the agent (Candida albicans No. 927; dilution : 16 of 1 × 10^−4 M)	Test culture growth at various dilutions of the agent (Candida albicans No. 927; dilution : 32 of 1 × 10^−4 M)	Test culture growth at various dilutions of the agent (Candida albicans No. 927; dilution : 64 of 1 × 10^−4 M)	Test culture growth at various dilutions of the agent on day 2 ([1]; dilution 0: 5.00 × 10^−4 M)	Test culture growth at various dilutions of the agent on day 2 ([1]; dilution : 2 of 5.00 × 10^−4 M)	Test culture growth at various dilutions of the agent on day 2 ([1]; dilution : 4 of 5.00 × 10^−4 M)	Test culture growth at various dilutions of the agent on day 2 ([1]; dilution : 8 of 5.00 × 10^−4 M)	Test culture growth at various dilutions of the agent on day 2 [1, 2]	Test culture growth at various dilutions of the agent on day 2 [1, 3]	Test culture growth at various dilutions of the agent on day 2 [1, 4]	Test culture growth at various dilutions of the agent on day 2 [1, 5]	toxic effect on human blood leukocytes (in words) (human leukocytes)	further results
N^α-[6(7)-(Protohemin IX)-yl]-ArgArgTrpTrpArgPhe-OH ({protohemin IX}-RRWWRF-OH) [Compound XX]	±	±	±	±	±	±	±										
C[C@@H]1[C@H](O)[C@@H](C)/C=C/C=C/C=C/C=C/C=C/C=C/C=C/[C@H](O[C@@H]2O[C@H](C)[C@@H](O)[C@H](N)[C@@H]2O)C[C@@H]2O[C@](O)(C[C@@H](O)C[C@@H](O)[C@H](O)CC[C@@H](O)C[C@@H](O)CC(=O)O[C@H]1C)C[C@H](O)[C@H]2C(=O)O [Amphotericin B, reference compound]								−**	−	−	−	−	−	−	−		
C=CC1=C(C)c2cc3[n-]c(cc4nc(cc5[n-]c(cc1n2)c(C)c5CCC(=O)NCCC(=O)N[C@@H](Cc1c[nH]cn1)C(=O)O)C(CCC(=O)NCCC(=O)N[C@@H](Cc1c[nH]cn1)C(=O)O)=C4C)c(C)c3C=C.[Cl-].[Fe+3] [Compound X]																did not cause the death	Death of leukocytes in the presence of 1 mM of compound (human leukocytes; 1 mM, 3 h incubation): 4.9 ± 0.3%
CC(C)C[C@@H]1NC(=O)[C@H](CCCN)NC(=O)[C@H](C(C)C)NC(=O)[C@@H]2CCCN2C(=O)[C@@H](Cc2ccccc2)NC(=O)[C@H](CC(C)C)NC(=O)[C@H](CCCN)NC(=O)[C@H](C(C)C)NC(=O)[C@@H]2CCCN2C(=O)[C@@H](Cc2ccccc2)NC1=O [Gramicidin S, reference compound] (cyclo(L[dF]PV[Orn]L[dF]PV[Orn]))																fully due to the toxic effect of the solvent	
C[C@@H]1C/C=C/C=C/C=C/C=C/[C@H](O[C@@H]2O[C@H](C)[C@@H](O)[C@H](N)[C@@H]2O)C[C@@H]2O[C@](O)(C[C@@H](O)C[C@H]3O[C@@H]3/C=C/C(=O)O1)C[C@H](O)[C@H]2C(=O)O [Pimafucin, reference compound]	−	−	−	−	−	+	+										
OC(Cn1cncn1)(Cn1cncn1)c1ccc(F)cc1F [Fluconazole, reference compound]								±**	±	±	+	+	+	+	+		
